Assay results published in patent US6362337B1, “Substituted phenyluracils” (Bayer Aktiengesellschaft, priority 1997, dated 2002).

Columns and labels:
weeds [1] = assay: Pre-emergence test, action against weeds; type: in vivo; conditions: soil sprayed about 24 hours after sowing, rated after three weeks vs untreated control
Method: (§1) To produce a suitable preparation of active compound, 1 part by weight of active compound is mixed with the stated amount of solvent, the stated amount of emulsifier is added and the concentrate is diluted with water to the desired concentration.
Seeds of the test plants are sown in normal soil. After about 24 hours, the soil is sprayed with the preparation of active compound such that the particular amounts of active compound desired are applied per unit area. The concentration of the spray liquor is chosen so that the particular amounts of active compound desired are applied in 1000 l of water/ha.
(§2) After three weeks, the degree of damage to the plants is rated in % damage in comparison with the development of the untreated control.
(§3) 0%=no effect (like untreated control)

weeds [2] = assay: Post-emergence test, action against weeds; type: in vivo; conditions: test plants 5-15 cm sprayed, rated after three weeks vs untreated control
Method: as §1
Test plants having a height of 5-15 cm are sprayed with the preparation of active compound such that the particular amounts of active compound desired are applied per unit area. The concentration of the spray liquor is chosen so that the particular amounts of active compound desired are applied in 1000 l of water/ha.
as §2, §3

Q: With `CCOC(=O)c1cc(-n2c(=O)cc(C(F)(F)F)n(N)c2=O)ccc1OC(C)=O` [Example 3, 1-amino-3-(4-acetoxy-3-ethoxycarbonyl-phenyl)-6-trifluoromethyl-1,2,3,4-tetrahydro-1H-pyrimidine-2,4-dione] as the compound, how does the “action against weeds (degree of damage to the plants)” value (weeds [1]) read?
A: very strong action against weeds

Q: And the “action against weeds (degree of damage to the plants)” value (weeds [2])?
A: very strong action against weeds

Q: What about the melting point of the same compound?
A: 190 °C

Q: Which results are given for `CCOC(=O)c1cc(-n2c(=O)cc(C(F)(F)F)n(C)c2=O)ccc1OC(C)=O` [Example 2, 3-(4-acetoxy-3-ethoxycarbonyl-phenyl)-1-methyl-6-trifluoromethyl-1,2,3,4-tetrahydro-1H-pyrimidine-2,4-dione]?
A: action against weeds (degree of damage to the plants) (weeds [1]): very strong action against weeds; action against weeds (degree of damage to the plants) (weeds [2]): very strong action against weeds; melting point: 148 °C

Q: For `CCOC(=O)c1cc(-n2c(=O)cc(C(F)(F)F)[nH]c2=O)ccc1OC(C)=O` [Example 1, 3-(4-acetoxy-3-ethoxycarbonyl-phenyl)-6-trifluoromethyl-1,2,3,4-tetrahydro-1H-pyrimidine-2,4-dione], which melting point is on record?
A: 155 °C
